Two compounds from patent US20080207952A1, “NOVEL THERAPEUTIC APPLICATIONS OF NATURAL POLY ISOPRENYLATED BENZOPHENONE DERIVATIVES AS DRUGS/MEDICAMENTS” (priority 2003, published 2008) can be followed below.

The test system of assay [1] is Propionibacterium acnes ATCC 11827. Nature of the assay: Anti-microbial activity against Propionibacterium acnes (disk zone of inhibition on Reinforced Clostridial Agar). It is filed as cell-based. As to conditions: 48 hours at 37° C., anaerobic. Here is the method: Propionibacterium acnes was cultured in an anaerobic chamber (Coy Laboratory, USA with an automatic lock purge system). The growth standardization was ensured by culturing the organism in different culture media. The anaerobic conditions were ensured initially with Nitrogen gas and then a mixture of Nitrogen, Hydrogen and Carbon dioxide in a ratio of 80:10:10. A two gas tank arrangement was made wherein only Nitrogen was connected to the transfer chamber and the mixed gas to the main chamber using Gassing Manifold (Hrishi Biotech. Pune, India). The anaerobic media were prepared by heating the media while passing the mixture of gases Nitrogen and Carbon dioxide in a ratio of 4:1 simultaneously. A redox indicator reazurin=0.001% was added to the media. The indicator is colorless in an anaerobic environ and turns blue otherwise. It was dispensed to 30 ml, 20 ml and 10 ml vials sealed with rubber and aluminium clamps and sterilized by autoclaving at 121° C. for 15 minutes.
Propionibacterium acnes ATCC 11827 was sub cultured from broth cultures into vials containing fresh medium. The cultures were then incubated for 48 hours at 37° C. The optical density of the culture at 625 nm was maintained between 0.64 and 0.80 which corresponded to approximately 12×10^6 cells/ml (4.0 MC Mc Farland standard). The anti-microbial susceptibility testing was carried on Reinforced Clostridial Agar (RCA). 0.3 ml of P. acnes culture was inoculated into the culture plates. Culture plates were impregnated with disks comprising varying concentrations of the test naturally occuring poly isoprenylated benzophenone derivatives. The plates were incubated in anaerobic chambers at 37° C. for 48 hours. The test naturally occuring poly isoprenylated benzophenone derivatives were prepared with DMSO as vehicle. The controls included DMSO and Clindac A (Clindamycin Phosphate Gel 1% w/w). The zone of inhibition was measured and expressed in mm. (Table I)

For another assay, the target named is T1, COX-1 (Ovis aries, UniProt P05979).
T1 construct: purchased Cayman chemical company 560101
T1 sequence (P05979 25-600): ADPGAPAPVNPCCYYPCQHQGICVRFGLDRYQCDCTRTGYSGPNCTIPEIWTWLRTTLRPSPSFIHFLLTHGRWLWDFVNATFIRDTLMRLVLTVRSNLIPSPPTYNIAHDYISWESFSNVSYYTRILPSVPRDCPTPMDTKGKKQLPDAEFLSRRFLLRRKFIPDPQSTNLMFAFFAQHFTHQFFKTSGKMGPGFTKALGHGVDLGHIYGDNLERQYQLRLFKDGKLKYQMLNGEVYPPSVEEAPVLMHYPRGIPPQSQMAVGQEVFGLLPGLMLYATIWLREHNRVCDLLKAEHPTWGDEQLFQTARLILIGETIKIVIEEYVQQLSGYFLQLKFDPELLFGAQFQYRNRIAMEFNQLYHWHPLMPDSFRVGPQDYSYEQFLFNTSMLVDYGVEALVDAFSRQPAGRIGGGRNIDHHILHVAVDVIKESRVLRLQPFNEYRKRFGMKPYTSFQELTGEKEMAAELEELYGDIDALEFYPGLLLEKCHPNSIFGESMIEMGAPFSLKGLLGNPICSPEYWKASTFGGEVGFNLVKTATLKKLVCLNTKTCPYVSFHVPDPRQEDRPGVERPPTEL
Nature of the assay: COX inhibitor screening assay (Cayman, EIA), COX-1. To be noted: substrate Arachidonate, prostaglandins by EIA. Type of assay: biochemical. As to the method: Principle: The COX inhibitor screening Assay was performed using the Cox inhibitory kit from Cayman chemical company (Catalog No. 560101) by Enzyme Immuno Assay method. Methodology: Enzyme (COX-1) is allowed to react on substrate Arachidonate in presence & absence of the inhibitor. The amount of prostaglandins (PGF2 ? ) produced by stannous chloride reduction of COX-derived PGFH2 are estimated by EIA (Cayman) using a broadly specific antibody that binds to all major prostaglandin compounds. The decrease in PGs released in presence of inhibitor is directly proportional to inhibition.

Assay [2] addresses T2, Elastase from Pig pancreas (Sus scrofa, UniProt P00772).
T2 construct: purchased; host or cells: pig pancreas
Nature of the assay: Anti-elastase activity (EnzChek elastase assay kit). It is filed as biochemical. As to conditions: read after 30 minutes. As to the method:
Principle: The assays were done using the EnzChek elastase assay kit. The substrate is DQ elastin soluble bovine neck ligament. DQ elastin is labeled with BODIPY FL dye. The non-fluorescent substrate can be digested by elastase to yield highly fluorescent fragments and in the presence of inhibitor, the fluorescence intensity is quenched. The fluorescence intensity was measured in a microplate reader ([…].) Methodology: Varying concentrations of the test material were pre-incubated for 10 minutes with the substrate DQ […]. Elastase from Pig pancreas enzyme was then added and the fluorescence intensity was measured after 30 minutes (Em: 485 nm and Ex: 520 nm.).

The target in another assay is T3, COX 2 (Ovis aries, UniProt P79208).
T3 construct: purchased Cayman chemical company 560101
T3 sequence (P79208 17-603): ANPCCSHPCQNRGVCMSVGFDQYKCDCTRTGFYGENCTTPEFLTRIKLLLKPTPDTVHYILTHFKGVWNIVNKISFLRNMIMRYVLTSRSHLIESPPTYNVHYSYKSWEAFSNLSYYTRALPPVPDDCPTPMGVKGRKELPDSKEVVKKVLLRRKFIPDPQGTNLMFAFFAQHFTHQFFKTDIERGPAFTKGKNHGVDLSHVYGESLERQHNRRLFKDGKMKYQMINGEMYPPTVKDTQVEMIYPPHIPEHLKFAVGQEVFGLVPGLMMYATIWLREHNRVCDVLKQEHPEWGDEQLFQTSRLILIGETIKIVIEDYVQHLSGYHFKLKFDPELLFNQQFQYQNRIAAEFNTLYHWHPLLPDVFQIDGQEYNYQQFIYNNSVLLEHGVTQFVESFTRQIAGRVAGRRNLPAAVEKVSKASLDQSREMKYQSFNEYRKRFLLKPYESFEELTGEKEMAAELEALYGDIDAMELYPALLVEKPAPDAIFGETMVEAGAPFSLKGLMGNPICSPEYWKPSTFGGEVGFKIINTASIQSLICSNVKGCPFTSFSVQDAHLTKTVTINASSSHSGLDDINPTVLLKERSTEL
Kind of assay: COX inhibitor screening assay (Cayman, EIA), COX-2. It is filed as biochemical. As to conditions: prostaglandins by EIA.

pIC50: −log10 of the molar value. Like-named read-outs stand apart in the source and are kept apart here.

T2 sequence (P00772 27-266): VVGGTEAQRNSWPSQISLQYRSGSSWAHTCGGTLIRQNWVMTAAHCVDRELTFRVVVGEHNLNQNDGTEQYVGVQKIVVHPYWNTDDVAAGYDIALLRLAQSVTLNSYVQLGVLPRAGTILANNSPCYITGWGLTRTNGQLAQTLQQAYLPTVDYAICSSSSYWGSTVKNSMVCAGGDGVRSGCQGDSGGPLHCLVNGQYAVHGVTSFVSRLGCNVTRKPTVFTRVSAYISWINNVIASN

`CC(C)=CC[C@H]1C[C@@]23C[C@@H](CC=C(C)C)C(C)(C)[C@@](CC=C(C)C)(C(=O)C(C(=O)c4ccc(O)c(O)c4)=C2OC1(C)C)C3=O` [Cambogin 90%, Cambogin]: the “Zone of Inhibition” value in assay [1] (Conc. of the sample 0.5%), in assay [1] (Conc. of the sample 1.0%), in assay [1] (Conc. of the sample 2.0%) and in assay [1] (Conc. of the sample 5.0%) was 0 mm throughout.
For the compound `C=C(C)[C@@H](CC=C(C)C)C[C@@]12C[C@@H](CC=C(C)C)C(C)(C)[C@@](CC=C(C)C)(C(=O)C(C(=O)c3ccc(O)c(O)c3)=C1O)C2=O` [Garcinol], the negative logarithm of the IC50 (pIC50) against COX-1 is 3.84; against COX 2 it was 4.44. In addition, the 50% inhibitory concentration (IC50) in assay [2] (Table III, read-out: IC50 (anti-elastase, sigmoidal dose response curve) (converted)) is 496 µM; in assay [2] (read-out: IC50 (anti-elastase) (converted)), 498 µM. For the same compound, the “Zone of Inhibition” value in assay [1] (Conc. of the sample 0.01%) is on record as 7 mm; in assay [1] (Conc. of the sample 0.03%) it was 8 mm; in assay [1] (Conc. of the sample 0.05%), 10 mm; in assay [1] (Conc. of the sample 0.1%) it was 11 mm; in assay [1] (Conc. of the sample 0.3%), 14 mm; in assay [1] (Conc. of the sample 0.5%), 16 mm. The “Zone of Inhibition” value is given as 18 mm in assay [1] (Conc. of the sample 1.0%), 19 mm in assay [1] (Conc. of the sample 2.0%) and 20 mm in assay [1] (Conc. of the sample 5.0%).

As a reminder, the pIC50 is the negative decadic logarithm of the IC50, by convention in mol/L. Read a high pIC50 as a low IC50. In general, IC50 refers to the point on the concentration scale where inhibition reaches its midpoint.
